Measured values published in article PMC5324105 (2017).

What was measured:
[1] = test system: Ru(bpy)3^2+ aptamer (Δ 25@3', Δ 5@5'; 53 nt) (RNA, aptamer) GGGAUGGACGAUCAUAUAACGAUAGCACUGGCGUAGGGAGACUACGUGUCCGU; test: ITC; settings: Na+ (phosphate-buffered saline, concentration not stated); PBS (Takara T900); 5 μM aptamer in cell, 50 μM compound in syringe
[2] = test system: 12Rd-5 (RNA, aptamer) GGGACACAAUGGACGAUCAUAUAACGAUAGCACUGGCGUAGGGAGACUACGUGUCCGUGUGUACCUAACGGCCGACAUGAGAG; test: phosphorescence titration; settings: 100 mM NaCl, 5 mM MgCl2; 20 mM HEPES pH 7.0; 1 μM compound, RNA 1 to 10 μM
[3] = test system: 12Rd-1 (RNA, aptamer) GGGACACAAUGGACGGUACGUAUUGCGUGGGACCCCGCGCAAUGAACUGGCCGAGGGAGACUCGGUAACGGCCGACAUGAGAG; test: phosphorescence titration; settings: 100 mM NaCl, 5 mM MgCl2; 20 mM HEPES pH 7.0; 1 μM compound, RNA 1 to 10 μM
[4] = test system: 12Rd-2 (RNA, aptamer) GGGACACAAUGGACGGCAGAUCUGAGAGGGGAAGACCCUUUGUUAUUAACGAACUUGCGGUAUGAUAACGGCCGACAUGAGAG; test: phosphorescence titration; settings: 100 mM NaCl, 5 mM MgCl2; 20 mM HEPES pH 7.0; 1 μM compound, RNA 1 to 10 μM
[5] = test system: Ru(bpy)3^2+ aptamer (Δ 25@3', Δ 5@5'; 53 nt) (RNA, aptamer) GGGAUGGACGAUCAUAUAACGAUAGCACUGGCGUAGGGAGACUACGUGUCCGU; test: phosphorescence titration; settings: 100 mM NaCl, 5 mM MgCl2; 20 mM HEPES pH 7.0; 1 μM compound, RNA 1 to 10 μM
[6] = test system: 12Rd-3 (RNA, aptamer) GGGACACAAUGGACGUGGGGCUACAGACCAUCCGUUCUAUCCCGAGCACCGGGCCAAUCUCAAGUUAACGGCCGACAUGAGAG; test: phosphorescence titration; settings: 100 mM NaCl, 5 mM MgCl2; 20 mM HEPES pH 7.0; 1 μM compound, RNA up to 10 μM
[7] = test system: 12Rd-4 (RNA, aptamer) GGGACACAAUGGACGGGCACAAGGUCCCACCAUCUCAGACGAGAAAGGAUACGCAGAUCGGCGAAUAACGGCCGACAUGAGAG; test: phosphorescence titration; settings: 100 mM NaCl, 5 mM MgCl2; 20 mM HEPES pH 7.0; 1 μM compound, RNA up to 10 μM
[8] = test system: 2'-F aptamer (RNA, aptamer, 2'-F RNA (DuraScribe T7 transcription; modified positions not stated)) GGGAUGGACGAUCAUAUAACGAUAGCACUGGCGUAGGGAGACUACGUGUCCGU; test: phosphorescence titration; settings: 100 mM NaCl, 5 mM MgCl2; 20 mM HEPES pH 7.0; 1 μM compound, RNA up to 10 μM
[9] = test system: Δ 31@3 (RNA, aptamer) GGGACACAAUGGACGAUCAUAUAACGAUAGCACUGGCGUAGGGAGACUACGU; test: phosphorescence titration; settings: 100 mM NaCl, 5 mM MgCl2; 20 mM HEPES pH 7.0; 1 μM compound, RNA up to 10 μM
[10] = test system: Δ Hairpin loop1 (RNA, aptamer) GGGAUGGACGAUAGCACUGGCGUAGGGAGACUACGUGUCCGU; test: phosphorescence titration; settings: 100 mM NaCl, 5 mM MgCl2; 20 mM HEPES pH 7.0; 1 μM compound, RNA up to 10 μM
[11] = test system: Δ Hairpin loop2 (RNA, aptamer) GGGAUGGACGAUCAUAUAACGAUAGCACUGGUGUCCGU; test: phosphorescence titration; settings: 100 mM NaCl, 5 mM MgCl2; 20 mM HEPES pH 7.0; 1 μM compound, RNA up to 10 μM
[12] = test system: Δ Loop2 (RNA, aptamer) GGGAUGGACGAUCAUAUAACGAUAGCGUAGGGAGACUACGUGUCCGU; test: phosphorescence titration; settings: 100 mM NaCl, 5 mM MgCl2; 20 mM HEPES pH 7.0; 1 μM compound, RNA up to 10 μM
[13] = test system: Δ 15@3' (RNA, aptamer) GGGACACAAUGGACGAUCAUAUAACGAUAGCACUGGCGUAGGGAGACUACGUGUCCGUGUGUACCUAA; test: phosphorescence titration; settings: 100 mM NaCl, 5 mM MgCl2; 20 mM HEPES pH 7.0; 1 μM compound, RNA 1 to 10 μM
[14] = test system: Δ 25@3' (RNA, aptamer) GGGACACAAUGGACGAUCAUAUAACGAUAGCACUGGCGUAGGGAGACUACGUGUCCGU; test: phosphorescence titration; settings: 100 mM NaCl, 5 mM MgCl2; 20 mM HEPES pH 7.0; 1 μM compound, RNA 1 to 10 μM

- Kd [1]: 65 nM
- binding [1]: no
- Kd [2]: 118 ± 90 nM
- Kd [3]: 1600 nM
- Kd [4]: 1000 nM
- binding [5]: yes
- binding [6]: no
- binding [7]: no
- binding [8]: no
- binding [9]: no
- binding [10]: no
- binding [11]: no
- binding [12]: no
- binding [13]: yes
- binding [14]: yes
SMILES: [Ru+2].c1ccc(-c2ccccn2)nc1.c1ccc(-c2ccccn2)nc1.c1ccc(-c2ccccn2)nc1
